Reference: patent US7439024B2, “Methods and kits for diagnosing or monitoring autoimmune and chronic inflammatory diseases” (The United States of America as represented by the …, priority 2005, dated 2008)

Columns and labels:
[1] = system: CD70; settings: PHA-stimulated purified T cells, 3 days after treatment, oligonucleotide arrays, 2 independent experiments, mean±SEM
[2] = system: CD70; assay: CD70 expression on CD4+ cells of PBMCs cultured with medications commonly used to treat lupus (flow cytometry); format: cell-based, human; settings: PBMCs with or without PHA, 24 hours, graded concentrations 1-100 μM
[3] = system: CD70 mRNA; assay: Real time RT-PCR of CD70 transcripts relative to β-actin in drug-treated T cells; format: cell-based, human; settings: for CD70 transcripts relative to β-actin, normalized to the untreated control: CD4+ T cells stimulated with anti-CD3 + anti-CD28, 5 μm 5-azaC, 50 μm Pca, 20 μm Hyd, 40 μm U0126 or 25 μm PD98059 for 3 days, FIG. 9; for expression of CD70 mRNA relative to that of beta-actin vs untreated cells: T cells, real time RT-PCR, FIG. 1B
Protocol: Cells and cell culture. Peripheral blood mononuclear cells (PBMCs) were isolated by density-gradient centrifugation. T cells were then isolated by E-rosetting (See, e.g., Golbus et at., Clin Immunol Immunopathol 46, 129 (1988)). […] Where indicated, the cells were cultured in RPMI 1640/10% fetal calf serum (FCS) supplemented with interleukin-2 (IL-2) (See, e.g., Richardson et at., Clin Immunol Immunopathol 55, 368 (1990)), in round-bottomed 5-ml culture tubes (FALCON). Cells were stimulated with 1 μg/ml of PHA (REMEL) for 16 hours, then cultured in 24-well plates at a density of 1×10^6 for an additional 72 hours in the presence of 2-deoxy-5-azaC or 5-azaC (SIGMA-ALDRICH), procainamide (SIGMA-ALDRICH), hydralazine (SIGMA-ALDRICH), or the MEK inhibitors U0126 (PROMEGA) or PD98059 (PROMEGA […]). In other studies, PHA-stimulated PBMCs were cultured in RPMI 1640/10% FCS and treated with indomethacin, chloroquine, hydrocortisone, and 6-mercaptopurine (6-MP) (all from SIGMA-ALDRICH). TT48E, a cloned, CD4+, tetanus toxoid-reactive human T cell line, was cultured as previously described (Comacchia et al., J Immunol 140, 2197 (1988); Richardson et al., Arthritis Rheum 35, 647 (1992)).
(§1) In other studies, T cells were isolated by negative selection using magnetic beads and instructions provided by the manufacturer (Pan T cell Isolation Kit, Miltenyi), and the CD4+ or CD8+ subset was similarly isolated by magnetic cell sorting. […] Purified human CD4+ T cells were first stimulated with plate bound anti-CD3 and soluble anti-CD28.

[4] = system: CD70; assay: Flow cytometric analysis of CD70 expression on T cells treated with DNA methylation inhibitors; format: cell-based, human; settings: for increase of CD70 expression on T cell clone TT48E: 3 days, 6 serial experiments; for increase of CD70 MFI on CD4+ T cells: CD4+ T cell subset; for CD70 expression on PHA-stimulated T cells, treated vs untreated: polyclonal T cells, 1 μM 5-azaC 3 days, procainamide increasing dosage, 25 μM PD98059 and dose response, 40 μM U0126 and dose response, FIG. 2; for CD70 expression on CD4+ T cells: summary statement in Example 8
[5] = system: autologous B cells; assay: T cell and B cell costimulation assay, IgG ELISA of supernatants; format: cell-based, human; settings: P<0.05; for IgG produced by B cells cultured with drug-treated cloned T cells vs untreated T cells: TT48E cloned CD4+ T cell line treated 3 days, autologous B cells, without PWM, FIG. 4; for IgG secreted by B cells cultured with drug-treated T cells vs same numbers of untreated T cells: unfractionated PHA-stimulated T cells treated 3 days, cultured with PWM and autologous B cells 8 days, FIG. 3
Protocol: T cell and B cell costimulation assays. E-rosette-purified T cells were stimulated for 16 hours with PHA and then treated with the indicated chemicals for an additional 72 hours as described above. Where indicated, T cell subsets were isolated by negative selection using magnetic beads (Miltenyi). B cells (1-4×10^5) enriched by negative selection using magnetic beads (Miltenyi) and assessed to be 70-85% pure using PE-conjugated anti-human CD21 (PHARMINGEN), were added to washed, drug-treated autologous T cells, at T cell to B cell ratios of 4:1, 2:1, 1:1, 1:2, and 1:4. Where indicated, 0.625 μg/ml of PWM (ALDRICH) was added. The cells were cultured in RPMI 1640/10% FBS/penicillin/streptomycin for 8 days in 96-well roundbottomed plates (Costar) containing a 200 μl total volume (performed in duplicate). Cells were supplemented with 50 μl of medium on day 4. Where indicated, 1 μg/ml of anti-CD70 monoclonal antibody (HNE51) (DAKO) was added to the cultures. TT48E cells were similarly stimulated with PHA (1 μg/ml) for 18 hours, treated with the indicated drugs for 3 days, then similarly cultured with autologous B cells for 8 days. Where indicated, the TT48E cells were pretreated with 1 μg/ml of anti-CD70 for 30 minutes at […], then washed and added to the B cells, according to protocols described by others (See, e.g., Kobata et at., Proc Natl Acad Sci U S A 92, 11249 (1995)).
IgG enzyme-linked immunosorbent assays (ELISAs). IgG was measured in the supernatants of the T cell-B cell cultures (See, e.g., Richardson et al., Clin Immunol Immunopathol 55, 368 (1990)). Briefly, 96-well flatbottomed polystyrene plates (Costar) were coated with 1 μg/ml of goat anti-human IgG (Southern Biotech) and washed. Unreacted combining sites were sealed with 3% bovine serum albumin (BSA) in phosphate buffered saline (PBS) by incubation at 4° C. for 16 hours. Pooled supernatants from duplicate wells were diluted 1:5 in PBS/1% BSA, and 50 μl was added to the wells. Serial dilutions of purified human IgG (Sigma) were used for quantitation. Following incubation and washing, goat anti-human IgG conjugated with horseradish peroxidase (Southern Biotech) was added, and cells were incubated for 2 hours at room temperature. The wells were washed 3 times with PBS/0.1% Tween 20, and color was developed using Sigma Fast tablets. The plates were read at 405 nm using a SpectraMax spectrophotometer (Molecular Devices). All determinations were performed in quadruplicate.
Since CD70 participates in T cell-dependent B cell stimulation (See e.g., Kobata et al., Proc Natl Acad Sci USA 92, 11249 (1995)), the effects of DNA methylation inhibitors on CD70-dependent B cell help were examined. […] Eight days later, total IgG in the supernatants was measured by ELISA. […]

[6] = system: CD70 promoter; assay: Bisulfite sequencing of the CD70 promoter in drug-treated CD4+ T cells; format: cell-based, human; settings: for methylation of the 10 CG pairs in the CD70 promoter region between −515 and −423: CD4+ T cells stimulated with anti-CD3 and anti-CD28, vs stimulated untreated controls, FIGS. 13, 14
Source text: as §1
Bisulfite sequencing. The putative CD70 promoter was identified using the published CD70 cDNA sequence and Tfsitescan software. Deoxycytosine (dC) and deoxymethylcytosine (d^mC) bases in the gene promoter and 5′ flanking sequences were identified by bisulfite treatment of purified DNA followed by nested PCR amplification of 3 sequential fragments to span the entire region. The primers were designed to avoid CG pairs and to account for the conversion of dC to dU by the bisulfite. EcoRI sites were added to the forward primers, and XbaI to the reverse, to facilitate cloning. The amplified fragments were then cloned into PBS+, and 5 clones sequenced for each fragment. The primers used were: […]
The effect of lupus and DNA methylation inhibitors on a regulatory element in the CD70 promoter was examined. DNA was isolated from the CD4+ T cells of 7 healthy individuals or 6 lupus patients, bisulfite treated, the region from −466-−515, containing 6 CG pairs was amplified by PCR, and 5 fragments sequenced from each individual. The average methylation status of the 6 CG pairs for healthy versus lupus individuals is shown (FIG. 8, NI and Lupus, respectively). CD4+ T cells from 5 individuals were also stimulated with PHA, treated with the irreversible DNA methyltransferase inhibitor 5-azacytidine (5-azaC), and the methylation status of the 6 CG pairs similarly analyzed from the 25 fragments sequenced (FIG. 8, 5-azaC). […] Results are presented as the mean±SEM of the average methylation of the 6 CG pairs, measured from the 10-35 determinations/group.
The effects of the DNA methylation inhibitors on the methylation status of this region were then compared. […] Again, 5 cloned fragments were sequenced from each control, for a total of 35 determinations per CG pair. […] FIG. 14 compares the average methylation for the 10 CG pairs (−515 to −423) in the T cells treated with DNA methylation inhibitors relative to stimulated, untreated controls.

Row | SMILES | CD70 expression on stimulated or unstimulated CD4+ cells [2] | CD70 transcripts relative to β-actin, normalized to the untreated control [3] | CD70 expression on PHA-stimulated T cells, treated vs untreated [4] | CD70 expression on CD4+ T cells [4] | methylation of the 10 CG pairs in the CD70 promoter region between −515 and −423 [6] | further results
1 | Nc1ncn([C@H]2C[C@H](O)[C@@H](CO)O2)c(=O)n1 [2-deoxy-5-azaC] |  |  |  |  |  | CD70 expression increase in treated cells relative to untreated controls [1]: 2.6±0.6 fold
2 | Sc1ncnc2nc[nH]c12 [6-MP, 6-mercaptopurine] | No increase in CD70 expression |  |  |  |  | 
3 | Nc1ncn([C@@H]2O[C@H](CO)[C@@H](O)[C@H]2O)c(=O)n1 [5-azaC, 5-azacytidine] |  | increase CD70 transcripts | small increase | increased CD70 expression | hypomethylated compared to controls | expression of CD70 mRNA relative to that of beta-actin vs untreated cells [3]: increased the expression of CD70 mRNA; increase of CD70 expression on T cell clone TT48E ([4]; 1 μM, P=0.048): 1.69±0.33 fold; increase of CD70 MFI on CD4+ T cells ([4]; 1 μM, P=0.025, n=5): 1.53±0.45 fold; concentration producing the greatest effect on CD70 expression ([4]; range of 5-azaC concentrations, P=0.001 overall, n=5 experiments, FIG. 2B): 1 µM; IgG produced by B cells cultured with drug-treated cloned T cells vs untreated T cells [5]: greater amounts of IgG; IgG secreted by B cells cultured with drug-treated T cells vs same numbers of untreated T cells [5]: greater amounts of IgG; CD70 expression increase in treated cells relative to untreated controls [1]: > 2 fold
4 | C[C@]12CCC(=O)C=C1CC[C@@H]1[C@@H]2[C@@H](O)C[C@@]2(C)[C@H]1CC[C@]2(O)C(=O)CO [hydrocortisone] | No increase in CD70 expression |  |  |  |  | 
5 | COc1ccc2c(c1)c(CC(=O)O)c(C)n2C(=O)c1ccc(Cl)cc1 [indomethacin] | No increase in CD70 expression |  |  |  |  | 
6 | CCN(CC)CCCC(C)Nc1ccnc2cc(Cl)ccc12 (stereo not drawn) [chloroquine] | No increase in CD70 expression |  |  |  |  | 
7 | COc1cccc(-c2cc(=O)c3ccccc3o2)c1N [PD98059] |  | increase CD70 transcripts | increase in CD70 expression with treatment | increased CD70 expression | appears to demethylate | increase of CD70 MFI on CD4+ T cells ([4]; 25 μM, P=0.032, n=3): 1.63±0.43 fold
8 | N#CC(=C(/N)Sc1ccccc1N)/C(C#N)=C(\N)Sc1ccccc1N [U0126] |  | increase CD70 transcripts | increase in CD70 expression with treatment | increased CD70 expression | appears to demethylate | expression of CD70 mRNA relative to that of beta-actin vs untreated cells [3]: increased the expression of CD70 mRNA; increase of CD70 expression on T cell clone TT48E ([4]; 40 μM, P=0.004): 1.87±0.37 fold; increase of CD70 MFI on CD4+ T cells ([4]; 40 μM, P=0.039, n=4): 3.20±0.44 fold; increase of CD70 MFI in T cells treated with U0126 (FIG. 2I) ([4]; P=0.085, stated in the passage on the smaller CD8+ increase): 2.83±0.95 fold; IgG produced by B cells cultured with drug-treated cloned T cells vs untreated T cells [5]: greater amounts of IgG; IgG secreted by B cells cultured with drug-treated T cells vs same numbers of untreated T cells [5]: greater amounts of IgG
9 | CCN(CC)CCNC(=O)c1ccc(N)cc1 [procainamide] |  | increase CD70 transcripts | increase in the ratio of the mean fluorescence intensity (MFI) of CD70 expression | increased CD70 expression | appears to demethylate | methylation status of the CD70 promoter region from −466-−515 containing 6 CG pairs ([6]; PHA-stimulated CD4+ T cells, FIG. 8): demethylate this region
